Results: PubChem BioAssay (NCI)
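Results reflect a 48-hour exposure of cells in 96-well plates to compound at five concentrations. GI50 marks 50% less growth. At the TGI there is no net growth.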 *1 amine or outer side, *2 acyl side, *3 side chain or, on linkers, in order; H or OH if unused. Where a SMILES comes first, the peptide text is derived from it. [ ]: non-standard residue; d: D form. The star is where a group is joined. X11 = C/C=C/CC(C)C(O)[C@H](N[*:1])C(=O)[*:2]; Decanoyl = CCCCCCCCCC(=O)*; Leu(ol) = CC(C)C[C@H](N)CO; Iva = CC[C@](C)(N)C(=O)O; Aib = CC(C)(N)C(=O)O

Key:
Assay in all cases: NCI tumour cell line growth inhibition, 48 h
786-0 renal = tested on: 786-0 renal
A498 renal = tested on: A498 renal
A549 NSCLC = tested on: A549 NSCLC
ACHN renal = tested on: ACHN renal
BT-549 breast = tested on: BT-549 breast
CAKI-1 renal = tested on: CAKI-1 renal
CCRF-CEM leukemia = tested on: CCRF-CEM leukemia
COLO 205 colon = tested on: COLO 205 colon
DU-145 prostate = tested on: DU-145 prostate
EKVX NSCLC = tested on: EKVX NSCLC
HCC-2998 colon = tested on: HCC-2998 colon
HCT-116 colon = tested on: HCT-116 colon
HCT-15 colon = tested on: HCT-15 colon
HL-60(TB) leukemia = tested on: HL-60(TB) leukemia
HOP-62 NSCLC = tested on: HOP-62 NSCLC
HOP-92 NSCLC = tested on: HOP-92 NSCLC
HS 578T breast = tested on: HS 578T breast
HT29 colon = tested on: HT29 colon
IGROV1 ovarian = tested on: IGROV1 ovarian
K-562 leukemia = tested on: K-562 leukemia
KM12 colon = tested on: KM12 colon
LOX IMVI melanoma = tested on: LOX IMVI melanoma
M14 melanoma = tested on: M14 melanoma
MALME-3M melanoma = tested on: MALME-3M melanoma
MCF7 breast = tested on: MCF7 breast
MDA-MB-231 breast = tested on: MDA-MB-231 breast
MDA-MB-435 = tested on: MDA-MB-435
MOLT-4 leukemia = tested on: MOLT-4 leukemia
NCI-H226 lung = tested on: NCI-H226 lung
NCI-H23 lung = tested on: NCI-H23 lung
NCI-H460 lung = tested on: NCI-H460 lung
NCI-H522 lung = tested on: NCI-H522 lung
NCI/ADR-RES ovarian = tested on: NCI/ADR-RES ovarian
OVCAR-3 ovarian = tested on: OVCAR-3 ovarian
OVCAR-4 ovarian = tested on: OVCAR-4 ovarian
OVCAR-5 ovarian = tested on: OVCAR-5 ovarian
OVCAR-8 ovarian = tested on: OVCAR-8 ovarian
PC-3 prostate = tested on: PC-3 prostate
RPMI-8226 leukemia = tested on: RPMI-8226 leukemia
RXF 393 renal = tested on: RXF 393 renal
SF-268 CNS = tested on: SF-268 CNS
SF-295 CNS = tested on: SF-295 CNS
SF-539 CNS = tested on: SF-539 CNS
SK-MEL-2 melanoma = tested on: SK-MEL-2 melanoma
SK-MEL-28 melanoma = tested on: SK-MEL-28 melanoma
SK-MEL-5 melanoma = tested on: SK-MEL-5 melanoma
SK-OV-3 ovarian = tested on: SK-OV-3 ovarian
SN12C renal = tested on: SN12C renal
SNB-19 CNS = tested on: SNB-19 CNS
SNB-75 CNS = tested on: SNB-75 CNS
SR leukemia = tested on: SR leukemia
SW-620 colon = tested on: SW-620 colon
T-47D breast = tested on: T-47D breast
TK-10 renal = tested on: TK-10 renal
U251 CNS = tested on: U251 CNS
UACC-257 melanoma = tested on: UACC-257 melanoma
UACC-62 melanoma = tested on: UACC-62 melanoma
UO-31 renal = tested on: UO-31 renal

C/C=C/CC(C)C(O)[C@H](NC(=O)[C@@H]1CCCN1C(=O)[C@](C)(CC)NC(=O)CCCCCCCCC)C(=O)N[C@@](C)(CC)C(=O)N[C@@H](CCC(N)=O)C(=O)N[C@H](CCC(N)=O)C(=O)NC(C)(C)C(=O)NC(C)(C)C(=O)N[C@@H](CCC(N)=O)C(=O)N[C@H](CC(C)C)C(=O)N[C@H](CO)CC(C)C (stereo partly drawn) (Decanoyl-[Iva]P[X11][Iva]Q[dQ][Aib][Aib]Q[dL][Leu(ol)])
GI50 (786-0 renal): 1810 nM | TGI (786-0 renal): 3430 nM | GI50 (A498 renal): 1900 nM | TGI (A498 renal): 3440 nM | GI50 (A549 NSCLC): 1910 nM | TGI (A549 NSCLC): 3920 nM | GI50 (ACHN renal): 1800 nM | TGI (ACHN renal): 3290 nM | GI50 (BT-549 breast): 1800 nM | TGI (BT-549 breast): 3360 nM | GI50 (CAKI-1 renal): 1690 nM | TGI (CAKI-1 renal): 3110 nM | GI50 (CCRF-CEM leukemia): 1860 nM | TGI (CCRF-CEM leukemia): 3650 nM | GI50 (COLO 205 colon): 1960 nM | TGI (COLO 205 colon): 3810 nM | GI50 (DU-145 prostate): 1790 nM | TGI (DU-145 prostate): 3180 nM | GI50 (EKVX NSCLC): 1740 nM | TGI (EKVX NSCLC): 3290 nM | GI50 (HCC-2998 colon): 1780 nM | TGI (HCC-2998 colon): 3420 nM | GI50 (HCT-116 colon): 1890 nM | TGI (HCT-116 colon): 3570 nM | GI50 (HCT-15 colon): 1860 nM | TGI (HCT-15 colon): 3670 nM | GI50 (HL-60(TB) leukemia): 1740 nM | TGI (HL-60(TB) leukemia): 3390 nM | GI50 (HOP-62 NSCLC): 1630 nM | TGI (HOP-62 NSCLC): 3270 nM | GI50 (HOP-92 NSCLC): 1620 nM | TGI (HOP-92 NSCLC): 3250 nM | GI50 (HS 578T breast): 1800 nM | TGI (HS 578T breast): 3480 nM | GI50 (HT29 colon): 1880 nM | TGI (HT29 colon): 3720 nM | GI50 (IGROV1 ovarian): 1790 nM | TGI (IGROV1 ovarian): 3390 nM | GI50 (K-562 leukemia): 1950 nM | TGI (K-562 leukemia): 3970 nM | GI50 (KM12 colon): 1870 nM | TGI (KM12 colon): 3570 nM | GI50 (LOX IMVI melanoma): 1740 nM | TGI (LOX IMVI melanoma): 3260 nM | GI50 (M14 melanoma): 1800 nM | TGI (M14 melanoma): 3370 nM | GI50 (MALME-3M melanoma): 1520 nM | TGI (MALME-3M melanoma): 2920 nM | GI50 (MCF7 breast): 1770 nM | TGI (MCF7 breast): 3520 nM | GI50 (MDA-MB-231 breast): 1780 nM | TGI (MDA-MB-231 breast): 3250 nM | GI50 (MDA-MB-435): 1770 nM | TGI (MDA-MB-435): 3170 nM | GI50 (MOLT-4 leukemia): 1930 nM | TGI (MOLT-4 leukemia): 3640 nM | GI50 (NCI-H226 lung): 1780 nM | TGI (NCI-H226 lung): 3830 nM | GI50 (NCI-H23 lung): 1800 nM | TGI (NCI-H23 lung): 3420 nM | GI50 (NCI-H460 lung): 1840 nM | TGI (NCI-H460 lung): 3380 nM | GI50 (NCI-H522 lung): 1770 nM | TGI (NCI-H522 lung): 3370 nM | GI50 (NCI/ADR-RES ovarian): 1810 nM | TGI (NCI/ADR-RES ovarian): 3480 nM | GI50 (OVCAR-3 ovarian): 1880 nM | TGI (OVCAR-3 ovarian): 3440 nM | GI50 (OVCAR-4 ovarian): 2150 nM | TGI (OVCAR-4 ovarian): 4800 nM | GI50 (OVCAR-5 ovarian): 1680 nM | TGI (OVCAR-5 ovarian): 3070 nM | GI50 (OVCAR-8 ovarian): 2040 nM | TGI (OVCAR-8 ovarian): 4240 nM | GI50 (PC-3 prostate): 1760 nM | TGI (PC-3 prostate): 3260 nM | GI50 (RPMI-8226 leukemia): 2020 nM | TGI (RPMI-8226 leukemia): 4320 nM | GI50 (RXF 393 renal): 2020 nM | TGI (RXF 393 renal): 3640 nM | GI50 (SF-268 CNS): 1830 nM | TGI (SF-268 CNS): 3450 nM | GI50 (SF-295 CNS): 1740 nM | TGI (SF-295 CNS): 3300 nM | GI50 (SF-539 CNS): 1750 nM | TGI (SF-539 CNS): 3150 nM | GI50 (SK-MEL-2 melanoma): 1770 nM | TGI (SK-MEL-2 melanoma): 3350 nM | GI50 (SK-MEL-28 melanoma): 1700 nM | TGI (SK-MEL-28 melanoma): 3090 nM | GI50 (SK-MEL-5 melanoma): 1780 nM | TGI (SK-MEL-5 melanoma): 3250 nM | GI50 (SK-OV-3 ovarian): 1930 nM | TGI (SK-OV-3 ovarian): 3950 nM | GI50 (SN12C renal): 1670 nM | TGI (SN12C renal): 3220 nM | GI50 (SNB-19 CNS): 1740 nM | TGI (SNB-19 CNS): 3180 nM | GI50 (SNB-75 CNS): 1400 nM | TGI (SNB-75 CNS): 2800 nM | GI50 (SR leukemia): 1610 nM | TGI (SR leukemia): 3430 nM | GI50 (SW-620 colon): 1900 nM | TGI (SW-620 colon): 3590 nM | GI50 (T-47D breast): 1590 nM | TGI (T-47D breast): 3400 nM | GI50 (TK-10 renal): 1750 nM | TGI (TK-10 renal): 3270 nM | GI50 (U251 CNS): 1770 nM | TGI (U251 CNS): 3350 nM | GI50 (UACC-257 melanoma): 1740 nM | TGI (UACC-257 melanoma): 3260 nM | GI50 (UACC-62 melanoma): 1660 nM | TGI (UACC-62 melanoma): 3050 nM | GI50 (UO-31 renal): 1540 nM | TGI (UO-31 renal): 2910 nM
